Measurements from patent US5648355A, “Method of treatment of endogenous, painful gastrointestinal conditions of non-inflammatory, non-ulcerative origin” (priority 1994, dated 1997).
Entries after “also recorded” stand apart in the source; their conditions may differ. Counter-ions that a name gives are not always drawn. Like-named read-outs stand apart in the source and are kept apart here.

Experiments:
[1] = system: intracranial mast cells; settings: cited from earlier work
[2] = system: gastrointestinal mast cells; settings: cited from earlier work
[3] = system: rat mucosal mast cell; assay: inhibition of rat mucosal mast cell degranulation in vitro (histamine release); type: cell-based; settings: read-out: ID20 for histamine release
Text: It is not necessary to the operability of the present invention that each member of the foregoing classes inhibits mast cell degranulation to the same extent. The ability of a particular substance to inhibit mast cell degranulation can be readily determined empirically. Thus, mast cells from rats (pieces of small intestine) or humans (intestinal biopsies) can be obtained; otherwise, RBL cells or immortalized human mucosal-like mast cells (HMC-1) are kept in culture. Any of these cells then are exposed to various concentrations of a putative inhibitory compound, to allow for action by the putative inhibitor at critical sites. Efficacy with respect to inhibition of mast cell degranulation then is ascertained; that is, the intestinal biopsies, explants or cultured cells thus treated are used as such or washed free of unbound test compound before exposure to a stimulus known to induce mast cell degranulation. A compound suitable for use in accordance with the present invention is recognized as one that prevents the stimulus from causing degranulation, presumably by binding to specific receptors or by inactivating a crucial step in the degranulation process.
A pharmaceutically effective dose for a given mast cell degranulation-blocking agent can be approximated by its ID20, which is the dose necessary to cause 20% inhibition in mast cells when applied to mast cells stimulated in vitro.

[4] = system: mast cell; settings: effective dose causing 20% secretion; cited from earlier work
[5] = system: abdominal migraine; settings: in vivo; cited from earlier work
[6] = system: abdominal migraine; assay: patient treatment, abdominal migraine; type: in vivo, human; settings: person; 3 μg/day subcutaneous, four months
Description: A patient with a two-year history of abdominal migraine, experienced constant gastrointestinal pain which was considerably worse immediately premenstrually. After treatment with the Gn-RH analogue LUPRON (3 μg/day subcutaneous injection) for four months, they were symptom-free.

[7] = system: irritable bowel syndrome; assay: patient treatment, irritable bowel syndrome; type: in vivo, human; settings: person; for pain: two months
[8] = system: PP2A; settings: cited from earlier work
[9] = system: Type 1 phosphatase (PP1); settings: cited from earlier work
[10] = system: PP2B; settings: cited from earlier work
[11] = system: PP2C; settings: cited from earlier work
[12] = system: rat mucosal mast cell (MMC); assay: RMCPII release from rat ileal explants, toxin A; type: cell-based; settings: for RMCPII released, Ketotifen + Toxin A: ketotifen 1 mg/kg twice daily intragastrically 4 days, toxin A 5 μg/ml, n = 6
Description: The following experiment was performed in order to evaluate rat mucosal mast cell (MMC) degranulation by measuring rat mast cell protease II (RMCPII), a specific marker for MMC, and by electron microscopy.
Rats were treated intragastrically for four (4) days with either 0.5 ml of saline containing ketotifen (1 mg/kg twice daily) or saline alone. On day five, the animals were euthanized, ileum was removed and ileal explants were placed in organ culture. The explants were incubated at 37° C. in a medium containing either 5 μg/ml of toxin A in 0.01 ml of 50 mM Tris buffer, or buffer alone. Aliquots (50 μl) of medium were collected at specified times and RMCPII levels were determined. Results are expressed in Table 4 as nanograms of RMCPII released per milligram of tissue wet weight (Pothoulakis et al., Gastroenterology 105:701-707, 1993).

[13] = system: rat mast cell protease II (RMCPII); assay: rat-immobilization assay, stress model, intestinal RMCPII; type: in vivo; settings: for rat intestinal RMCPII, pre-treated w/ ketotifen: 1 mg/kg i.p. twice daily for four days before immobilization, n = 3
Description: An assay by which efficacy of a mast cell degranulation-blocking agent can be tested systemically in the present context is the rat-immobilization assay, […] After the immobilization, a specific gastrointestinal mast cell mediator, rat mast cell protease II (RMCPII), is measured. This assay is accepted as a non-ulcerogenic model of stress. See Williams et al., Am. J. PhysioI. 253:582-86 (1987).
Ketotifen was administered intraperitoneally to rats (1 mg/kg body weight, twice daily) for four days prior to immobilization.

[14] = system: rat basophilic leukemia (RBL) cells; settings: Kouretas et al. 1991; cited from earlier work
[15] = inhibitory dose causing 20% inhibition, rat mucosal mast cells in vitro

**Q.** What does the source list for `O=C(O)c1cc(=O)c2c(OCC(O)COc3cccc4oc(C(=O)O)cc(=O)c34)cccc2o1` [disodium cromoglycate]?
**A.** inhibition of intracranial mast cells [1]: inhibited; inhibition of gastrointestinal / mucosal mast cells [2]: the former but not the latter are inhibited; also recorded: do not have an inhibitory effect specifically on mucosal mast cells

**Q.** With `CNCCc1c[nH]cn1` [N^α -methyl histamine] as the molecule, how does the IC20 ([3]; Rattus norvegicus) read?
**A.** The IC20 was 100 nM.

**Q.** For `CN(C)CCC(c1ccc(Cl)cc1)c1ccccn1` (centres unmarked) [Clorphenyramine], which “ED20 for Histamine Release” value [4] is on record?
**A.** The value was 10^-3 M.

**Q.** For `CC(C)NCC(O)COc1cccc2ccccc12` (centres unmarked) [propranolol], which “effect in abdominal migraine” value [5] is on record?
**A.** Its value is “seem not to work”.

**Q.** Which “symptoms of abdominal migraine” value [6] does the source give for `CCNC(=O)[C@@H]1CCCN1C(=O)[C@H](CCCNC(=N)N)NC(=O)[C@H](CC(C)C)NC(=O)[C@@H](CC(C)C)NC(=O)[C@H](Cc1ccc(O)cc1)NC(=O)[C@H](CO)NC(=O)[C@H](Cc1c[nH]c2ccccc12)NC(=O)[C@H](Cc1c[nH]cn1)NC(=O)[C@@H]1CCC(=O)N1` [LUPRON, leuprolide acetate] here?
**A.** The value was “symptom-free”.

**Q.** With `CN1CCC(=C2c3ccccc3CCc3cccnc32)CC1` [Azatadine] as the molecule, how does the IC20 [3, 15] read?
**A.** Its IC20 is 100 nM.

**Q.** With `CC/C(=C(\c1ccccc1)c1ccc(OCCN(C)C)cc1)c1ccccc1` [tamoxifen citrate] as the molecule, how does the pain ([7]; 40 mg/day orally) read?
**A.** The pain was “substantially eliminated their pain”.

**Q.** For `OCCOCCN1CCN(C(c2ccccc2)c2ccc(Cl)cc2)CC1` (centres unmarked) [hydroxyzine hydrochloride], which gastrointestinal discomfort ([7]; 50 mg/day, three months) is on record?
**A.** Its gastrointestinal discomfort is “almost completely eliminated”.

**Q.** And the “professional and family responsibilities” value ([7]; 50 mg/day, three months)?
**A.** Its value is “able to resume their professional and family responsibilities”.

**Q.** What about the “symptoms of irritable bowel syndrome on withdrawal” value ([7]; attempted withdrawal) of the same molecule?
**A.** The value was “marked increase in symptoms of irritable bowel syndrome”.

**Q.** And the “symptoms on resuming the medication” value ([7]; resumed medication)?
**A.** Its value is “symptoms disappeared”.

**Q.** Which “effect on PP2A” value [8] does the source give for `C=C1[C@@H](O)[C@@H]2O[C@]3(CC[C@H](/C=C/[C@@H](C)[C@@H]4CC(C)=C[C@@]5(O[C@H](C[C@@](C)(O)C(=O)O)CC[C@H]5O)O4)O3)CC[C@H]2O[C@@H]1[C@@H](O)C[C@H](C)[C@H]1O[C@@]2(CCCCO2)CC[C@H]1C` [okadaic acid] here?
**A.** The value was “inhibited”.

**Q.** What about the “effect on PP1” value [9] of the same molecule?
**A.** The value was “inactivated”.

**Q.** What about the “effect on PP2B” value [10] of the same molecule?
**A.** Its value is “inhibited”.

**Q.** And the “effect on PP2C” value [11]?
**A.** Its value is “insensitive”.

**Q.** What does the source list for `CN1CCC(=C2c3ccccc3CC(=O)c3sccc32)CC1` [Ketotifen]?
**A.** RMCPII released, Ketotifen + Toxin A ([12]; 30 min): 2.9 ± 1.0 nanograms of RMCPII released p; RMCPII released, Ketotifen + Toxin A ([12]; 60 min, p < 0.05 vs Toxin A): 3.0 ± 1.1 nanograms of RMCPII released p; RMCPII released, Ketotifen + Toxin A ([12]; 120 min, p < 0.01 vs Toxin A): 4.2 ± 0.9 nanograms of RMCPII released p; RMCPII released, Ketotifen + Toxin A ([12]; 180 min, p < 0.01 vs Toxin A): 6.7 ± 1.9 nanograms of RMCPII released p; release of RMCPII from rat ileal explants (in words) ([12]; toxin A stimulus): effectively inhibits the release of RMCPII; rat intestinal RMCPII, pre-treated w/ ketotifen ([13]; 60 min): 0.5 ng/mL; rat intestinal RMCPII, pre-treated w/ ketotifen ([13]; 120 min, p < 0.001 vs. immobilized): 0.8 ng/mL; secretion of RMCPII during stress (in words) ([13]; rat-immobilization assay): preventing secretion of RMCPII; pain ([7]; 4 mg/day): their pain subsided significantly; IC20 ([3]; Rattus norvegicus): 10000 nM

**Q.** With `OCCOCCN1CCN(C(c2ccccc2)c2ccc(Cl)cc2)CC1` (centres unmarked) [hydroxyzine pamoate] as the molecule, how does the professional activities ([7]; 50 mg/day, 4 months) read?
**A.** Its professional activities is “able to resume their professional activities”.

**Q.** What about the “symptoms of irritable bowel syndrome” value ([7]; 50 mg/day, 4 months) of the same molecule?
**A.** The value was “noticeable improvement of their symptoms”.

**Q.** Which “binding to RBL cells” value [14] does the source give for `CC(=O)[C@H]1CC[C@H]2[C@@H]3CCC4=CC(=O)CC[C@]4(C)[C@H]3CC[C@]12C` [progesterone] here?
**A.** Its value is “bind”.

**Q.** For `CN(C)CCOC(c1ccccc1)c1ccccc1` [Diphenhydramine], which “ED20 for Histamine Release” value [4] is on record?
**A.** The value was 10^-3 M.

**Q.** For `O=c1[nH]c2ccccc2n1CCCN1CCN(C(c2ccccc2)c2ccccc2)CC1` [Oxatomide], which IC20 [3, 15] is on record?
**A.** Its IC20 is 100 nM.

**Q.** Which “ED20 for Histamine Release” value [4] does the source give for `CC(CN1c2ccccc2Sc2ccccc21)N(C)C` (centres unmarked) [Promethazine] here?
**A.** The value was 10^-4 M.
